ChEMBL document CHEMBL1148901, “07H239-A, a new cytotoxic eremophilane sesquiterpene from the marine-derived Xylariaceous fungus LL-07H239” (J Nat Prod, 2004)
≈ marks a conversion by molar mass, not a printed value.

Experiments:
Type in all cases: functional, cell-based
[1] = Cytotoxicity against human A2780DDP cells
[2] = test system: SW948; test: Cytotoxicity against human SW948 cells
[3] = test system: A549; test: Cytotoxicity against human A549 cells
[4] = test system: DU-145; test: Cytotoxicity against human DU145 cells
[5] = test system: MCF7; test: Cytotoxicity against human MCF7 cells
[6] = test system: SW-620; test: Cytotoxicity against human SW620 cells
[7] = test system: CCRF-CEM; test: Cytotoxicity against human CCRF-CEM cells
[8] = test system: PC-3; test: Cytotoxicity against human PC3 cells
[9] = test system: Caco-2; test: Cytotoxicity against human Caco-2 cells
[10] = test system: T47D; test: Cytotoxicity against human T47D cells
[11] = test system: COLO 205; test: Cytotoxicity against human COLO205 cells
[12] = test system: HCT-15; test: Cytotoxicity against human HCT15 cells
[13] = Cytotoxicity against human CCL228 cells
[14] = test system: LX-1; test: Cytotoxicity against human LX1 cells
[15] = Cytotoxicity against human LS 174T cells; settings: LS174T
[16] = Cytotoxicity against human A2780S cells; settings: A2780
[17] = test system: CX-1; test: Cytotoxicity against human CX-1 cells
[18] = test system: SK-BR-3; test: Cytotoxicity against human SK-BR-3 cells
[19] = Cytotoxicity against human […] cells
[20] = Cytotoxicity against human LOX cells
[21] = test system: LNCaP; test: Cytotoxicity against human LNCAP cells
[22] = Cytotoxicity against human NEC cells

Compound `C=C(C=O)[C@@H]1C[C@@]2(C)C(=CC1=O)[C@H](OC(=O)/C=C/C=C/C(C)CC(C)CC)CC[C@@H]2C(=O)O` (relative stereo) has an IC50 [1] of 3.01 µg/mL (≈ 6.59 µM), an IC50 [2] of 3.09 µg/mL (≈ 6.77 µM) and an IC50 [3] of 3.95 µg/mL (≈ 8.65 µM). It also gave an IC50 [4] of 3.06 µg/mL (≈ 6.7 µM), an IC50 [5] of 2.83 µg/mL (≈ 6.2 µM) and an IC50 [6] of 3.6 µg/mL (≈ 7.88 µM). It also gave an IC50 [7] of 0.88 µg/mL (≈ 1.93 µM), an IC50 [8] of 3.59 µg/mL (≈ 7.86 µM) and an IC50 [9] of 3.25 µg/mL (≈ 7.12 µM). For the same compound, the IC50 [10] was 3.5 µg/mL (≈ 7.67 µM), the IC50 [11] was 3.41 µg/mL (≈ 7.47 µM) and the IC50 [12] was 4.08 µg/mL (≈ 8.94 µM). The IC50 [13] was 3.04 µg/mL (≈ 6.66 µM), the IC50 [14] was 4.16 µg/mL (≈ 9.11 µM) and the IC50 [15] was 3.29 µg/mL (≈ 7.21 µM). For the same compound, the IC50 [16] was 3.09 µg/mL (≈ 6.77 µM), the IC50 [17] was 3.21 µg/mL (≈ 7.03 µM) and the IC50 [18] was 3.53 µg/mL (≈ 7.73 µM). For the same compound, the IC50 [19] was 2.47 µg/mL (≈ 5.41 µM), the IC50 [20] was 3.43 µg/mL (≈ 7.51 µM) and the IC50 [21] was 3.06 µg/mL (≈ 6.7 µM). It also gave an IC50 [22] of 3.38 µg/mL (≈ 7.4 µM).
